The results in this text go back to patent US12447153B2, “HER2 mutation inhibitors” (Array BioPharma Inc., priority 2021, dated 2025).

For one data set, the target named is EGFR wild type (EGFR WT) (Homo sapiens (Human), UniProt P00533). Kind of data set: Cellular Phosphorylation Assay, Assay 5 (EGF-stimulated EGFR phosphorylation, NIH 3T3 cells). The class given is cell-based.
The next data set has as its target EGFR (Homo sapiens (Human), UniProt P00533). Kind of data set: ErbB Enzyme Assay (HTRF KinEASE-TK), Assay 3. The class given is biochemical.
The target of data set [1] is ErbB2 with Exon 20 YVMA insertion (HER2-YVMA) (Homo sapiens (Human), UniProt P04626, INS775YVMA). Kind of data set: Cellular Phosphorylation Assay, Assay 4 (constitutive ErbB2 phosphorylation, NIH 3T3 cells). The class given is cell-based.
Sequence of ErbB2 with Exon 20 YVMA insertion (HER2-YVMA) (P04626 other isoform, or with tags, fused parts or gaps ins YVMA behind 775): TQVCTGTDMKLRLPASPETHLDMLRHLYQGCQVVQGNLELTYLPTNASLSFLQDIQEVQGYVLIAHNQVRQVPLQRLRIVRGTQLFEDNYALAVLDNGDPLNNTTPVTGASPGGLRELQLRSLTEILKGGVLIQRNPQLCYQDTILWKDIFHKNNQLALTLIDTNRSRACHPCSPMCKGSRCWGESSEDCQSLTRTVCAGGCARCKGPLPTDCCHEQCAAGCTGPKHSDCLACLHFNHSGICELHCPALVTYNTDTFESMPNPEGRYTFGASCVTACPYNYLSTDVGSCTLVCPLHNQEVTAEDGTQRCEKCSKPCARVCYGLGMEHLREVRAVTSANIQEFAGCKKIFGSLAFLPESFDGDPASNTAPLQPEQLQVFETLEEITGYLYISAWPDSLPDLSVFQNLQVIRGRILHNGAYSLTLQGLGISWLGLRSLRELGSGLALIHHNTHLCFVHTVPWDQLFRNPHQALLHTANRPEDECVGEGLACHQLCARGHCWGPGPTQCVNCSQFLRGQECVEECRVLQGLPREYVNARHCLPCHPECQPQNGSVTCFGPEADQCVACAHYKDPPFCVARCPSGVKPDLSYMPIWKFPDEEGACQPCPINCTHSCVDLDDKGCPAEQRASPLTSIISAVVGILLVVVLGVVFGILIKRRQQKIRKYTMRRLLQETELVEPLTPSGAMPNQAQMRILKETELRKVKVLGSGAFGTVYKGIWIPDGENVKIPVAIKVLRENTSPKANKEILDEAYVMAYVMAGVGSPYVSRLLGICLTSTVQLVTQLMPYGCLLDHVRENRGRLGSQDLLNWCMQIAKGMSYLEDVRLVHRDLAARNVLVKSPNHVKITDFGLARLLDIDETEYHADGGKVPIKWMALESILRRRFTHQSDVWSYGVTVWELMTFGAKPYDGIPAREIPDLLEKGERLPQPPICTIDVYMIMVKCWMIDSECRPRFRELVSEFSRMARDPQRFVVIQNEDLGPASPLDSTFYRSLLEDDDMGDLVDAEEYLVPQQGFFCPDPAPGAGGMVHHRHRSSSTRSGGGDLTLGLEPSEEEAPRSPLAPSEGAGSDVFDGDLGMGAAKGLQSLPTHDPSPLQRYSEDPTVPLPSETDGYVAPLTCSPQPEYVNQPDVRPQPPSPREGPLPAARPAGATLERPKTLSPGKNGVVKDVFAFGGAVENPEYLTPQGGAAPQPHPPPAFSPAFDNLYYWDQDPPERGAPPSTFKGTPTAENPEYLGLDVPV
The target of another data set is BCRP (Homo sapiens (Human), UniProt Q9UNQ0). The experiment in a line: BCRP MDCKII efflux assay (Assay 7). The class given is in vitro ADME. The conditions noted are these: dog; efflux ratio Papp(B-A)/Papp(A-B), BCRP MDCKII cells; read-out: Assay 7 Pe Ratio. The procedure:
Assay conditions included with and without the BCRP-specific inhibitor, KO143, at a concentration of 0.3 μM to ascertain the contribution of BCRP to the efflux value of the test compound.
Final organic concentration in the assay was 1%.

A further data set deals with ErbB2 WT (Homo sapiens (Human), UniProt P04626). The experiment in a line: ErbB Enzyme Assay (HTRF KinEASE-TK), Assay 2. The class given is biochemical.
Sequence of ErbB2 WT (P04626 23-1255): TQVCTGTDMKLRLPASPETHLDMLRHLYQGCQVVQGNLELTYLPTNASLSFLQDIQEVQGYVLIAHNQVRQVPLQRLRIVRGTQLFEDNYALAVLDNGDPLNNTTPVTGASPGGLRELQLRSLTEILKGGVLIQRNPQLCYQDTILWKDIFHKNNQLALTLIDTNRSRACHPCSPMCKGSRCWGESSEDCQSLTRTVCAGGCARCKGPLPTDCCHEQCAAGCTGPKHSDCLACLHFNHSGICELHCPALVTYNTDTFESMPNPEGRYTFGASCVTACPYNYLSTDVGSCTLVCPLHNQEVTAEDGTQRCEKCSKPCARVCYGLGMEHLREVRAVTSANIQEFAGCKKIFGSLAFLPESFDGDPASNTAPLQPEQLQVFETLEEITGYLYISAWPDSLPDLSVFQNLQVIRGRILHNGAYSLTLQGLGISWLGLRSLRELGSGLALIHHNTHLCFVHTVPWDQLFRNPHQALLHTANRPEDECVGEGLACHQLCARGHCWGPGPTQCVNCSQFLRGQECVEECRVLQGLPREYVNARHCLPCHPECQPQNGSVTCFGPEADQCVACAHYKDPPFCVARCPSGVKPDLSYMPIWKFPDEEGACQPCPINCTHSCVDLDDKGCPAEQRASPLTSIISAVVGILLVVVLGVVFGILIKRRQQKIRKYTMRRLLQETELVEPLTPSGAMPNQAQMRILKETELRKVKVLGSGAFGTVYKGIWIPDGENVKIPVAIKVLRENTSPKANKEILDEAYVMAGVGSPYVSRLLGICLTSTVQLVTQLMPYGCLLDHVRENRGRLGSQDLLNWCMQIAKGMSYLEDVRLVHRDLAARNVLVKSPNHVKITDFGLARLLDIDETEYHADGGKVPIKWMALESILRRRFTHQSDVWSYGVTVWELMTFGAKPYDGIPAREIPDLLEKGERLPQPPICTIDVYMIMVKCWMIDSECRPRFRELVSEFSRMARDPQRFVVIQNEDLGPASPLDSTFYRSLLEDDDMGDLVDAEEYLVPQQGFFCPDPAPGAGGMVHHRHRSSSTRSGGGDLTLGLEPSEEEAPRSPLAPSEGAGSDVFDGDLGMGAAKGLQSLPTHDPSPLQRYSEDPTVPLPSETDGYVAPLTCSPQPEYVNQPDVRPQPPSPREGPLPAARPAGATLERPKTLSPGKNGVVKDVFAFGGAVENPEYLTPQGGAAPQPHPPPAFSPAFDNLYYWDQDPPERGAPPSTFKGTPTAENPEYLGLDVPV
The mark [2] stands for this setting: EGF-stimulated EGFR WT phosphorylation.
The mark [3] stands for this setting: cellular EGFR WT phosphorylation, EGF-stimulated.
Setting [4] is: cellular ErbB2 YVMA phosphorylation.

Sequence of BCRP (Q9UNQ0 whole entry): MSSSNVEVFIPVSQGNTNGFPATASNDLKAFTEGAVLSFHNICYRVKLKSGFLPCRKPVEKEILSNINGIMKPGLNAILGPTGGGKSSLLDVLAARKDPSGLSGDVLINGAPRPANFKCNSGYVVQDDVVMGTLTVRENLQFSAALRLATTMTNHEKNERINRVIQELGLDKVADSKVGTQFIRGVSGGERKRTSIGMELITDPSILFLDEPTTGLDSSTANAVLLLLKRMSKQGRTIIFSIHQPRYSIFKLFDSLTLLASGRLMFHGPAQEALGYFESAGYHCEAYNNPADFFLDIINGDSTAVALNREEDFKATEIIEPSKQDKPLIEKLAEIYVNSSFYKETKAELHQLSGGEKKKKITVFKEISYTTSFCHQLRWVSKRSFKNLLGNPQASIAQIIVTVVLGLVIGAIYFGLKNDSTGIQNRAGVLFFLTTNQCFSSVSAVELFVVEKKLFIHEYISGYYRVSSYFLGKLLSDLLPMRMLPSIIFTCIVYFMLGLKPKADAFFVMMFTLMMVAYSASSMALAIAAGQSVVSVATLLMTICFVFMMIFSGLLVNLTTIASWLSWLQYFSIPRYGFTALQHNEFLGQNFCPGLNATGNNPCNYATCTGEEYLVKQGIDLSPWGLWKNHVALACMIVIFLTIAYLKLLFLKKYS
Sequence of EGFR wild type (EGFR WT) (P00533 25-1210): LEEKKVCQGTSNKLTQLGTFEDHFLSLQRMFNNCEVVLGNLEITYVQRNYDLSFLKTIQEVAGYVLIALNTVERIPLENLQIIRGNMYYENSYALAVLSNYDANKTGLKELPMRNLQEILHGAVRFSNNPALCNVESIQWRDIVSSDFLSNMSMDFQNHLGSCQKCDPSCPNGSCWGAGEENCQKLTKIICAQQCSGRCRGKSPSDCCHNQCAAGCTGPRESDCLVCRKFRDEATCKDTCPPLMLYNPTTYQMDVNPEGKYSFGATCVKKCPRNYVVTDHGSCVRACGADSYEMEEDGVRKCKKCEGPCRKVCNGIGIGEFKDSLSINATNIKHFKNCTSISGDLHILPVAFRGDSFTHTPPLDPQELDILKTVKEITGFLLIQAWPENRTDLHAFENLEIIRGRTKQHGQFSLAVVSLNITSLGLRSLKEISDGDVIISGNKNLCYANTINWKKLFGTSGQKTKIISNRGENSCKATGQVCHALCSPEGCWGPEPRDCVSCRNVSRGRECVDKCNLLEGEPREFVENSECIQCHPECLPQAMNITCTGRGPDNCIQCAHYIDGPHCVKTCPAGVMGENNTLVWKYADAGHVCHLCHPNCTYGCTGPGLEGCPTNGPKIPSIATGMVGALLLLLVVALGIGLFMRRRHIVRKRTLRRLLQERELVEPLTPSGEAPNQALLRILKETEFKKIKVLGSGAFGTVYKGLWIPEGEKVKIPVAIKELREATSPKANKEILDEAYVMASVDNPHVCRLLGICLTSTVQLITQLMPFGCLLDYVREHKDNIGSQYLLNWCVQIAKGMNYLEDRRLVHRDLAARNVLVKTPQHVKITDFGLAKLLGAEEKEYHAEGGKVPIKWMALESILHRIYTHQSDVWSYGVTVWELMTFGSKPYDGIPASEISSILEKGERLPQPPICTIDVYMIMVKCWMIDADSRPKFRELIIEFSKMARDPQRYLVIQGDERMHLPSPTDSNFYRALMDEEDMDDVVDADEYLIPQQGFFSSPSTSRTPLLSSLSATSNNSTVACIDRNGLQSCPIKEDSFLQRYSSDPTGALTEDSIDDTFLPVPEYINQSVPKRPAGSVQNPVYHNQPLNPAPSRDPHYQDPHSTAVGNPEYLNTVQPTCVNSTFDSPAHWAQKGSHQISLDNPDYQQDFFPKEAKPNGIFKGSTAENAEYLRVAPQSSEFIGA

Turning to `C=CC(=O)N1CCN(c2ccc3ncnc(Nc4cc(Cl)c(Oc5ccn6ncnc6c5)cc4F)c3n2)CC1` [Example 81, 1-(4-(4-((4-([1,2,4]triazolo[1,5-a]pyridin-7-yloxy)-5-chloro-2-fluorophenyl)amino)pyrido[3,2-d]pyrimidin-6-yl)piperazin-1-yl)prop-2-en-1-one], the IC50 (as a rule, the concentration at which inhibition is half-maximal) against EGFR wild type (EGFR WT) (setting [2]) was ≥ 5000 nM; at EGFR (EGFR enzyme) it was 9430 nM; in data set [1] (ErbB2 YVMA phosphorylation) it was 9.5 nM; at ErbB2 WT (ErbB2 WT enzyme), 33.2 nM. Besides, the efflux ratio at 2 h, 1 µM at BCRP worked out at 17.4.
The matching figures for `C=CC(=O)N1CCN(c2ccc3ncnc(Nc4ccc(Oc5ccn6ncnc6c5)c(Cl)c4)c3n2)CC1(C)C` [Example 74, 1-(4-(4-((4-([1,2,4]triazolo[1,5-a]pyridin-7-yloxy)-3-chlorophenyl)amino)pyrido[3,2-d]pyrimidin-6-yl)-2,2-dimethylpiperazin-1-yl)prop-2-en-1-one]: 298 nM, 1710 nM, 5.7 nM, 9.2 nM and 6.4.
As to `C=CC(=O)N1CCN(c2ccc3ncnc(Nc4ccc(Oc5cnc6c(c5)ncn6C)c(C)c4F)c3n2)C[C@@H]1C(F)F` (racemic) [Example 300], the IC50 against EGFR wild type (EGFR WT) (setting [3]) stood at 653 nM; against EGFR (EGFR enzyme assay), 277 nM; in data set [1] (setting [4]), 9.5 nM; against ErbB2 WT (ErbB2 WT enzyme assay), 11.3 nM. The efflux ratio at 2 h, 1 µM at BCRP was 5.8.
For `C=CC(=O)N1CCC(c2ccc3ncnc(Nc4ccc(Oc5cnc6c(c5)ncn6C)c(C)c4)c3n2)CC1` [Example 273], the IC50 against EGFR wild type (EGFR WT) (setting [3]) is ≥ 5000 nM; on EGFR (EGFR enzyme assay), 5640 nM; in data set [1] (setting [4]), 25.7 nM; at ErbB2 WT (ErbB2 WT enzyme assay), 76.3 nM. For the same molecule, the efflux ratio at 2 h, 1 µM at BCRP amounted to 15.3.
With `C=CC(=O)N1CCN(c2ccc3ncnc(Nc4ccc(Oc5ccc6c(c5)ncn6C)c(C)c4)c3n2)CC1` [Example 105, 1-(4-(4-((3-methyl-4-((1-methyl-1H-benzo[d]imidazol-5-yl)oxy)phenyl)amino)pyrido[3,2-d]pyrimidin-6-yl)piperazin-1-yl)prop-2-en-1-one], the half-maximal inhibitory concentration (IC50) worked out at 1350 nM at EGFR wild type (EGFR WT) (setting [2]), 680 nM against EGFR (EGFR enzyme), 5 nM in data set [1] (ErbB2 YVMA phosphorylation) and 11.9 nM at ErbB2 WT (ErbB2 WT enzyme). For the same molecule, on BCRP, the efflux ratio at 2 h, 1 µM is 31.6.
For the molecule `C=CC(=O)N1[C@H](C)CN(c2ccc3ncnc(Nc4ccc(Oc5ccn6ncnc6c5)c(Cl)c4F)c3n2)C[C@@H]1C` [Example 288], the IC50 against EGFR wild type (EGFR WT) (setting [3]) worked out at 778 nM; against EGFR (EGFR enzyme assay), 1340 nM; in data set [1] (setting [4]) it was 10.5 nM; against ErbB2 WT (ErbB2 WT enzyme assay), 11 nM. Besides, the efflux ratio at 2 h, 1 µM on BCRP worked out at 4.4.
With `C=CC(=O)N1CCN(c2ccc3ncnc(Nc4ccc(Oc5ccn6ncnc6c5)c(C)c4F)c3n2)C[C@H]1C(C)C` [Example 267], the IC50 at EGFR wild type (EGFR WT) (setting [3]) came to 1070 nM; at EGFR (EGFR enzyme assay), 8970 nM; in data set [1] (setting [4]), 29.8 nM; at ErbB2 WT (ErbB2 WT enzyme assay), 45.8 nM. Moreover, at BCRP, the efflux ratio at 2 h, 1 µM came to 1.7.
On to `C=CC(=O)N1C[C@H]2C[C@@H]1CN(c1ccc3ncnc(Nc4cc(Cl)c(Oc5ccn6ncnc6c5)cc4F)c3n1)C2` [Example 292], for which the half-maximal inhibitory concentration (IC50) against EGFR wild type (EGFR WT) (setting [3]) is ≥ 5000 nM; on EGFR (EGFR enzyme assay), ≥ 10000 nM; in data set [1] (setting [4]) it was 71 nM; at ErbB2 WT (ErbB2 WT enzyme assay), 75.5 nM. Also, the efflux ratio at 2 h, 1 µM on BCRP was found to be 15.6.
Turning to `C=CC(=O)N1CCN(c2ccc3ncnc(Nc4ccc(Oc5cnc6c(c5)ncn6C)c(C)c4)c3n2)CC1` [Example 110, 1-(4-(4-((3-methyl-4-((3-methyl-3H-imidazo[4,5-b]pyridin-6-yl)oxy)phenyl)amino)pyrido[3,2-d]pyrimidin-6-yl)piperazin-1-yl)prop-2-en-1-one], the IC50 was 2530 nM on EGFR wild type (EGFR WT) (setting [2]), 6160 nM at EGFR (EGFR enzyme), 5 nM in data set [1] (ErbB2 YVMA phosphorylation) and 58 nM against ErbB2 WT (ErbB2 WT enzyme). The efflux ratio at 2 h, 1 µM at BCRP came to 84.4.
Consider `C=CC(=O)N1C2CC1CN(c1ccc3ncnc(Nc4cc(C)c(Oc5cnc6c(c5)ncn6C)cc4F)c3n1)C2` [Example 446], for which the IC50 at EGFR wild type (EGFR WT) (setting [3]) was ≥ 5000 nM; at EGFR (EGFR enzyme assay), ≥ 10000 nM; in data set [1] (setting [4]) it was 28 nM; against ErbB2 WT (ErbB2 WT enzyme assay), 2560 nM. In addition, on BCRP, the efflux ratio at 2 h, 1 µM was found to be 19.4.
For `C=CC(=O)N1C[C@@H]2C[C@H]1C[C@H]2c1ccc2ncnc(Nc3cc(C)c(Oc4ccc5c(c4)ncn5C)cc3F)c2n1` [Example 375], the IC50 was found to be 2020 nM at EGFR wild type (EGFR WT) (setting [3]), 1030 nM against EGFR (EGFR enzyme assay), 19 nM in data set [1] (setting [4]) and 43.6 nM on ErbB2 WT (ErbB2 WT enzyme assay). The efflux ratio at 2 h, 1 µM at BCRP came to 4.
For the molecule `CC#CC(=O)N1C[C@@H]2CC[C@H]1CN2c1ccc2ncnc(Nc3ccc(Oc4ccn5ncnc5c4)c(C)c3F)c2n1` [Example 333], the IC50 came to 2130 nM against EGFR wild type (EGFR WT) (setting [3]), 31 nM in data set [1] (setting [4]) and 155 nM against ErbB2 WT (ErbB2 WT enzyme assay). Moreover, the efflux ratio at 2 h, 1 µM on BCRP is 6.8.
Turning to `C=CC(=O)N1CCC(Oc2ccc3ncnc(Nc4ccc(Oc5cnn6ccnc6c5)c(C)c4)c3n2)CC1` [Example 8, 1-(4-((4-((4-(imidazo[1,2-b]pyridazin-7-yloxy)-3-methylphenyl)amino)pyrido[3,2-d]pyrimidin-6-yl)oxy)piperidin-1-yl)prop-2-en-1-one], the IC50 against EGFR wild type (EGFR WT) (setting [2]) was determined as 799 nM; on EGFR (EGFR enzyme) it was 1350 nM; in data set [1] (ErbB2 YVMA phosphorylation), 47.3 nM; at ErbB2 WT (ErbB2 WT enzyme), 76.5 nM.
In the case of `C=CC(=O)N1CC[C@@H]2[C@H](c3ccc4ncnc(Nc5cc(C)c(Oc6ccc7c(c6)ncn7C)cc5F)c4n3)CC[C@@H]21` (racemic) [Example 134, rac-1-((3aR,4R,6aS)-4-(4-((2-fluoro-5-methyl-4-((1-methyl-1H-benzo[d]imidazol-5-yl)oxy)phenyl)amino)pyrido[3,2-d]pyrimidin-6-yl)hexahydrocyclopenta[b]pyrrol-1(2H)-yl)prop-2-en-1-one], the IC50 on EGFR wild type (EGFR WT) (setting [2]) was ≥ 5000 nM; on EGFR (EGFR enzyme), ≥ 10000 nM; in data set [1] (ErbB2 YVMA phosphorylation), 222 nM; at ErbB2 WT (ErbB2 WT enzyme), 86.3 nM.
Regarding `C=CC(=O)N1C[C@@H]2C[C@H]1CC[C@@H]2c1ccc2ncnc(Nc3ccc(Oc4ccn5ncnc5c4)c(C)c3F)c2n1` [Example 381], the IC50 on EGFR wild type (EGFR WT) (setting [3]) was found to be 2640 nM; at EGFR (EGFR enzyme assay), 1720 nM; in data set [1] (setting [4]) it was 67.3 nM; against ErbB2 WT (ErbB2 WT enzyme assay), 28.9 nM.
Consider `C=CC(=O)N1CCCN(c2nc3c(Nc4ccc(Oc5ccn6ncnc6c5)c(Cl)c4F)ncnc3cc2OC)CC1` [Example 153, 1-(4-(4-((4-([1,2,4]triazolo[1,5-a]pyridin-7-yloxy)-3-chloro-2-fluorophenyl)amino)-7-methoxypyrido[3,2-d]pyrimidin-6-yl)-1,4-diazepan-1-yl)prop-2-en-1-one], for which the IC50 on EGFR wild type (EGFR WT) (setting [2]) is 1790 nM; on EGFR (EGFR enzyme), 265 nM; in data set [1] (ErbB2 YVMA phosphorylation), 38.3 nM; against ErbB2 WT (ErbB2 WT enzyme), 4 nM.
For the molecule `CC#CC(=O)N1C[C@@H]2C[C@H]1CN2c1ccc2ncnc(Nc3ccc(Oc4ccn5ncnc5c4)c(Cl)c3F)c2n1` [Example 316], the IC50 was 1450 nM on EGFR wild type (EGFR WT) (setting [3]), 1970 nM against EGFR (EGFR enzyme assay), 61.6 nM in data set [1] (setting [4]) and 23.1 nM against ErbB2 WT (ErbB2 WT enzyme assay).
In the case of `C=CC(=O)N1CCC[C@@H](c2ccc3ncnc(Nc4cc(C)c(Oc5ccc6c(c5)ncn6C)cc4F)c3n2)CC1` (racemic) [Example 135, rac-(R)-1-(4-(4-((2-fluoro-5-methyl-4-((1-methyl-1H-benzo[d]imidazol-5-yl)oxy)phenyl)amino)pyrido[3,2-d]pyrimidin-6-yl)azepan-1-yl)prop-2-en-1-one], the IC50 at EGFR wild type (EGFR WT) (setting [2]) was ≥ 5000 nM; against EGFR (EGFR enzyme) it was ≥ 10000 nM; in data set [1] (ErbB2 YVMA phosphorylation), 44.5 nM; at ErbB2 WT (ErbB2 WT enzyme) it was 121 nM.
